Data on 13 compounds can be found in patent EP0115820A2, “Cephalosporin derivatives and process for their preparation” (Kaken Pharmaceutical Co., Ltd., priority 1983, dated 1984).

In brackets after ≈: the same amount, converted by molar mass. Like-named read-outs stand apart in the source and are kept apart here.

Common to all, as to assay: Minimum inhibitory concentration (MIC)
Common to all, as to assay type: cell-based

The test system of assay [1] is Escherichia coli NIHJ JC-2. The text has this:
(§1) The cephalosporin derivatives of the present invention are novel substances, and the antimicrobial activities of their sodium salts are shown by the minimum inhibitory concentrations (MIC, µg/ml) in Table 1, as compared with a typical known cephalosporin compound.

Assay [2] relates to Pseudomonas aeruginosa K-13.
Source text: as §1

Assay [3] relates to Serratia marcescens No. 16-2.
Source text: as §1

Assay [4] deals with Pseudomonas aeruginosa Y-1.
Source text: as §1

Assay [5] deals with Klebsiella pneumoniae No. 42.
Source text: as §1

Assay [6] relates to Staphylococcus aureus 209 P JC-1.
Source text: as §1

In assay [7] the test system is Proteus vulgaris GN-76.
Source text: as §1

Assay [8] relates to Pseudomonas aeruginosa E-2.
Source text: as §1

The mark [9] stands for this setting: NIHJJC2, Escherichia coli NIHJ JC-2, bacterial suspension 10^6 cells/ml, sodium salts tested, read-out: Minimum inhibitory concentration.
Where [10] appears, read: K13, Pseudomonas aeruginosa K-13, bacterial suspension 10^6 cells/ml, sodium salts tested, read-out: Minimum inhibitory concentration.
The mark [11] stands for this setting: NO.162, Serratia marcescens No. 16-2, bacterial suspension 10^6 cells/ml, sodium salts tested, read-out: Minimum inhibitory concentration.
[12] abbreviates: Y1, Pseudomonas aeruginosa Y-1, bacterial suspension 10^6 cells/ml, sodium salts tested, read-out: Minimum inhibitory concentration.
The mark [13] stands for this setting: Klebsiella pneumoniae No. 42, bacterial suspension 10^6 cells/ml, sodium salts tested, read-out: Minimum inhibitory concentration.
[14] abbreviates: 209PJC1, Staphylococcus aureus 209 P JC-1, bacterial suspension 10^6 cells/ml, sodium salts tested, read-out: Minimum inhibitory concentration.
Where [15] appears, read: GN76, Proteus vulgaris GN-76, bacterial suspension 10^6 cells/ml, sodium salts tested, read-out: Minimum inhibitory concentration.
[16] abbreviates: E2, Pseudomonas aeruginosa E-2, bacterial suspension 10^6 cells/ml, sodium salts tested, read-out: Minimum inhibitory concentration.

In the case of `CC(=O)OCC1=C(C(=O)O)N2C(=O)[C@@H](NC(=O)C(NC(=O)c3ccc(OC(C)=O)cc3)c3csc(N)n3)[C@H]2SC1` (mixture of isomers) [Example 17, 7β-[DL-2-(4-acetoxybenzoylamino)-2-(2-aminothiazol-4-yl)acetamido]cephalosporic acid], the MIC in assay [1] (setting [9]) is 0.78 µg/mL; in assay [2] (setting [10]) it was 100 µg/mL; in assay [3] (setting [11]) it was over 200 µg/mL; in assay [4] (setting [12]), 200 µg/mL; in assay [5] (setting [13]) it was 3.12 µg/mL; in assay [6] (setting [14]), 0.2 µg/mL. Also, the MIC in assay [7] (setting [15]) amounted to 6.25 µg/mL; in assay [8] (setting [16]) it was 100 µg/mL.
For the compound `CC(=O)Oc1cc(C(=O)NC(C(=O)N[C@@H]2C(=O)N3C(C(=O)O)=C(CSc4nnnn4C)CS[C@H]23)c2csc(N)n2)cc(OC(C)=O)c1OC(C)=O` (mixture of isomers) [Example 3, 7β-[DL-2-(3,4,5-triacetoxybenzoylamino)-2-(2-aminothiazol-4-yl)acetamidol-3-(l-methyl-lH-tetrazol-5-yl-thiomethyl)-3-cephem-4-carboxylic acid], the MIC in assay [1] (setting [9]) is 0.78 µg/mL; in assay [2] (setting [10]), 0.2 µg/mL; in assay [3] (setting [11]), 0.05 µg/mL; in assay [4] (setting [12]), 0.1 µg/mL; in assay [5] (setting [13]), under 0.05 µg/mL; in assay [6] (setting [14]), 0.78 µg/mL. The MIC came out at 0.39 µg/mL in assay [7] (setting [15]) and 0.2 µg/mL in assay [8] (setting [16]).
As for `CO[C@@]1(NC(=O)CSCC#N)C(=O)N2C(C(=O)O)=C(CSc3nnnn3C)CS[C@@H]21` [Cefmetazole, reference compound], the MIC was 0.78 µg/mL (≈ 1.65 µM) in assay [1] (Escherichia coli, NIHJJC2, read-out: Minimum inhibitory concentration); 3200 µg/mL (≈ 6790 µM) in assay [2] (Pseudomonas aeruginosa, K13, read-out: Minimum inhibitory concentration); over 50 µg/mL in assay [3] (Serratia marcescens, NO.162, read-out: Minimum inhibitory concentration); 3200 µg/mL (≈ 6790 µM) in assay [4] (Pseudomonas aeruginosa, Y1, read-out: Minimum inhibitory concentration); 1.56 µg/mL (≈ 3.31 µM) in assay [5] (Klebsiella pneumoniae, NO.42, read-out: Minimum inhibitory concentration); 0.39 µg/mL (≈ 0.827 µM) in assay [6] (Staphylococcus aureus, 209PJC1, read-out: Minimum inhibitory concentration). For the same compound, the MIC in assay [7] (Proteus vulgaris, GN76, read-out: Minimum inhibitory concentration) stood at 3.12 µg/mL (≈ 6.62 µM); in assay [8] (Pseudomonas aeruginosa, E2, read-out: Minimum inhibitory concentration) it was 3200 µg/mL (≈ 6790 µM).
For `CC(=O)OCC1=C(C(=O)O)N2C(=O)[C@@H](NC(=O)C(NC(=O)c3ccc(O)c(O)c3)c3csc(N)n3)[C@H]2SC1` (mixture of isomers) [Example 20, 7β-[DL-2-(3,4-dihydroxybenzoylamino)-2-(2-aminothiazol-4-yl)acetamido]cephalosporic acid], the MIC in assay [1] (setting [9]) came out at 0.39 µg/mL; in assay [2] (setting [10]), 0.2 µg/mL; in assay [3] (setting [11]), 6.25 µg/mL; in assay [4] (setting [12]), 0.05 µg/mL; in assay [5] (setting [13]), 0.05 µg/mL; in assay [6] (setting [14]) it was 0.39 µg/mL. The MIC in assay [7] (setting [15]) stood at 0.2 µg/mL; in assay [8] (setting [16]), 0.1 µg/mL.
On to `CCOC(=O)Oc1ccc(C(=O)NC(C(=O)N[C@]2(OC)C(=O)N3C(C(=O)O)=C(COC(C)=O)CS[C@@H]32)c2csc(N)n2)cc1OC(=O)OCC` (mixture of isomers) [Example 13, 7α -methoxy-7β-[DL-2-(3,4-diethoxy-carbonyloxybenzoylamino)-2-(2-aminothiazol-4-yl)-acetamido]cephalosporic acid], for which the MIC in assay [1] (setting [9]) is 12.5 µg/mL; in assay [2] (setting [10]) it was 1.56 µg/mL; in assay [3] (setting [11]) it was 3.12 µg/mL; in assay [4] (setting [12]) it was 0.78 µg/mL; in assay [5] (setting [13]), 0.39 µg/mL; in assay [6] (setting [14]), 1.56 µg/mL. The MIC in assay [7] (setting [15]) was found to be 6.25 µg/mL; in assay [8] (setting [16]), 0.78 µg/mL.
For `CC(=O)Oc1ccc(C(=O)NC(C(=O)N[C@@H]2C(=O)N3C(C(=O)O)=C(CSc4nnnn4C)CS[C@H]23)c2csc(N)n2)cc1OC(C)=O` (mixture of isomers) [Example 1, 7β-[DL-2-(3,4-diacetoxybenzoylamino)-2-(2-aminothiazol-4-yl)acetamido]-3-(1-methyl-1H-tetrazol-5-yl-thiomethyl)-3-cephem-4-carboxylic acid], the MIC in assay [1] (setting [9]) stood at 0.2 µg/mL; in assay [2] (setting [10]), 0.2 µg/mL; in assay [3] (setting [11]), 6.25 µg/mL; in assay [4] (setting [12]) it was 0.05 µg/mL; in assay [5] (setting [13]) it was 0.1 µg/mL; in assay [6] (setting [14]), 0.78 µg/mL. The MIC amounted to 0.39 µg/mL in assay [7] (setting [15]) and 0.2 µg/mL in assay [8] (setting [16]).
In the case of `CO[C@@]1(NC(=O)C(NC(=O)c2cc(OC(C)=O)c(OC(C)=O)c(OC(C)=O)c2)c2csc(N)n2)C(=O)N2C(C(=O)O)=C(COC(C)=O)CS[C@@H]21` (mixture of isomers) [Example 7, 7α-methoxy-7β-[DL-2-(3,4,5-triacetoxy-benzoylamino)-2-(2-aminothiazol-4-yl)acetamido]-cephalosporic acid], the MIC in assay [1] (setting [9]) worked out at 12.5 µg/mL; in assay [2] (setting [10]) it was 1.56 µg/mL; in assay [3] (setting [11]) it was 50 µg/mL; in assay [4] (setting [12]), 0.78 µg/mL; in assay [5] (setting [13]), 1.56 µg/mL; in assay [6] (setting [14]), 6.25 µg/mL. The MIC in assay [7] (setting [15]) stood at 12.5 µg/mL; in assay [8] (setting [16]) it was 0.78 µg/mL.
For `CC(=O)OCC1=C(C(=O)O)N2C(=O)[C@@H](NC(=O)C(NC(=O)c3cc(O)c(O)c(O)c3)c3csc(N)n3)[C@H]2SC1` (mixture of isomers) [Example 25, 7β-[DL-2-(3,4,5-trihydroxy-benzoylamino)-2-(2-aminothiazol-4-yl)acetamido]-cephalosporic acid], the MIC is 0.2 µg/mL in assay [1] (setting [9]); 0.39 µg/mL in assay [2] (setting [10]); over 100 µg/mL in assay [3] (setting [11]); 0.1 µg/mL in assay [4] (setting [12]); 0.1 µg/mL in assay [5] (setting [13]); 0.2 µg/mL in assay [6] (setting [14]). Further, the figures for the MIC in assay [7] (setting [15]) and in assay [8] (setting [16]) were 1.56 µg/mL and 0.2 µg/mL, respectively.
For `CC(=O)OCC1=C(C(=O)O)N2C(=O)[C@@H](NC(=O)C(NC(=O)c3ccccc3OC(C)=O)c3csc(N)n3)[C@H]2SC1` (mixture of isomers) [Example 15, 7β-[DL-2-(2-acetoxybenzoylamino)-2-(2-aminothiazol-4-yl)acetamido]cephalosporic acid], the MIC was 1.56 µg/mL in assay [1] (setting [9]); 25 µg/mL in assay [2] (setting [10]); 200 µg/mL in assay [3] (setting [11]); 50 µg/mL in assay [4] (setting [12]); 6.25 µg/mL in assay [5] (setting [13]); 0.39 µg/mL in assay [6] (setting [14]). Further, the MIC in assay [7] (setting [15]) came to 6.25 µg/mL; in assay [8] (setting [16]), 25 µg/mL.
Consider `CO[C@@]1(NC(=O)C(NC(=O)c2cccc(OC(C)=O)c2OC(C)=O)c2csc(N)n2)C(=O)N2C(C(=O)O)=C(COC(C)=O)CS[C@@H]21` (mixture of isomers) [Example 8, 7α-methoxy-7β-(DL-2-(2,3-diacetoxy-benzoylamino)-2-(2-aminothiazol-4-yl)acetamido]-cephalosporic acid], for which the MIC in assay [1] (setting [9]) worked out at 25 µg/mL; in assay [2] (setting [10]), 6.25 µg/mL; in assay [3] (setting [11]) it was 3.12 µg/mL; in assay [4] (setting [12]), 3.12 µg/mL; in assay [5] (setting [13]) it was 0.78 µg/mL; in assay [6] (setting [14]), 6.25 µg/mL. The MIC in assay [7] (setting [15]) is 3.12 µg/mL; in assay [8] (setting [16]), 1.56 µg/mL.
For the compound `CO[C@@]1(NC(=O)C(NC(=O)c2ccc(O)c(O)c2)c2csc(N)n2)C(=O)N2C(C(=O)O)=C(COC(C)=O)CS[C@@H]21` (mixture of isomers) [Example 9, 7α-methoxy-7β-[DL-2-(3,4-dihydroxy-benzoylamino)-2-(2-aminothiazol-4-yl)acetamidolcephalosporic acid], the MIC in assay [1] (setting [9]) is 12.5 µg/mL; in assay [2] (setting [10]), 0.78 µg/mL; in assay [3] (setting [11]), 3.12 µg/mL; in assay [4] (setting [12]), 0.39 µg/mL; in assay [5] (setting [13]) it was 0.39 µg/mL; in assay [6] (setting [14]) it was 1.56 µg/mL. Further, the MIC came out at 3.12 µg/mL in assay [7] (setting [15]) and 0.39 µg/mL in assay [8] (setting [16]).
On to `CC(=O)OCC1=C(C(=O)O)N2C(=O)[C@@H](NC(=O)C(NC(=O)c3cccc(O)c3O)c3csc(N)n3)[C@H]2SC1` (mixture of isomers) [Example 21, 7β-[DL-2-(2,3-dihydroxybenzoylamino)-2-(2-aminothiazol-4-yl)acetamido]cephalosporic acid], for which the MIC is 1.56 µg/mL in assay [1] (setting [9]); 0.78 µg/mL in assay [2] (setting [10]); over 200 µg/mL in assay [3] (setting [11]); 3.12 µg/mL in assay [4] (setting [12]); 0.39 µg/mL in assay [5] (setting [13]); 3.12 µg/mL in assay [6] (setting [14]). In addition, the MIC came out at 1.56 µg/mL in assay [7] (setting [15]) and 0.39 µg/mL in assay [8] (setting [16]).
As for `CC(=O)OCC1=C(C(=O)O)N2C(=O)[C@@H](NC(=O)C(NC(=O)c3cc(OC(C)=O)c(OC(C)=O)c(OC(C)=O)c3)c3csc(N)n3)[C@H]2SC1` (mixture of isomers) [Example 18, 7β-[DL-2-(3,4,5-triacetoxybenzoylamino)-2-(2-aminothiazol-4-yl)acetamido]cephalosporic acid], the MIC in assay [1] (setting [9]) was determined as 0.39 µg/mL; in assay [2] (setting [10]), 0.78 µg/mL; in assay [3] (setting [11]) it was 3.12 µg/mL; in assay [4] (setting [12]) it was 0.78 µg/mL; in assay [5] (setting [13]), 0.1 µg/mL; in assay [6] (setting [14]) it was 1.56 µg/mL. For the same compound, the MIC in assay [7] (setting [15]) came to 0.78 µg/mL; in assay [8] (setting [16]), 0.2 µg/mL.
